This test addresses T1, human and rat GPR-14 (UniProt Q9UKP6).
T1 sequence (Q9UKP6 1-389): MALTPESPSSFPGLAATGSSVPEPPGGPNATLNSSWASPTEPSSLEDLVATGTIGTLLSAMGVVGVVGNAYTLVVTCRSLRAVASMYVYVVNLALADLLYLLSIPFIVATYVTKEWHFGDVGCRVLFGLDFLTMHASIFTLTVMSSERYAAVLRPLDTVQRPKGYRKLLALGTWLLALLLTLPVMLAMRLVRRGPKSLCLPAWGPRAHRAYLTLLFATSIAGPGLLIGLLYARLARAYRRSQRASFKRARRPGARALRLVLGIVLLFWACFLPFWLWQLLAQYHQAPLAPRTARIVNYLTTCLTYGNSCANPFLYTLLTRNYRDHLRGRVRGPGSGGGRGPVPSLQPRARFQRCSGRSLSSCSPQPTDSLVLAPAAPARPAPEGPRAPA
Briefly: Radioligand binding: [125I] h-U-II binding to HEK-293 cell membranes. The settings on record: HEK-293 cell membranes with stable cloned GPR-14; 200 pM [125I] h-U-II; species for the value not stated. The procedure: HEK-293 cell membranes containing stable cloned human and rat GPR-14 (20 ug/assay) were incubated with 200 pM [125I] h-U-II (200 Ci/mmol^−1 in the presence of increasing concentrations of test compounds in DMSO (0.1 nM to 10 uM), in a final incubation volume of 200 ul (20 mM Tris-HCl, 5 mM MgCl2). Incubation was done for 30 minutes at room temperature followed by filtration GF/B filters with Brandel cell harvester. ^125I labeled U-II binding was quantitated by gamma counting. Nonspecific binding was defined by ^125I U-II binding in the presence of 100 nM of unlabeled human U-II. Analysis of the data was performed by nonlinear least square fitting.

The values that follow come from patent publication US7091204B2, “Sulfonamides” (SmithKline Beecham Corporation, priority 2001, dated 2006).

The Ki is a dissociation constant, usually derived from enzyme kinetics or from competition with a known ligand. Read a high Ki as a looser hold on the target. Molecule `CN1CC[C@@H](Oc2cc(NS(=O)(=O)c3cnc(Cl)nc3OCC(F)(F)F)ccc2Cl)C1` [Example 14, 2-Chloro-4-(2,2,2-trifluoro-ethoxy)-pyrimidine-5-sulfonic acid [4-chloro-3-((R)-1-methyl-pyrrolidin-3-yloxy)-phenyl]-amide] came in with a Ki of 590 nM.
